Experimental data reported in patent US20100137266A1, “TREATMENT OF INSULIN RESISTANCE AND DISORDERS ASSOCIATED THEREWITH” (UNIVERSITETET I OSLO, priority 2006, published 2010).

What was measured:
[1] = test system: rat FAS luciferase reporter; assay: Transfection and luciferase assay with rat FAS promoter reporter in COS-1 cells co-transfected with RXRα and LXRα; format: cell-based; settings: COS-1 cells with RXRα and LXRα expression vectors; 1 μM T0901317 or 10 μM 22-HC for 48 h; vs unstimulated control cells
Protocol: FIG. 6. […] COS-1 cells were transient transfected with rat FAS luciferase reporter and co-transfected with β-galactosidase (internal control), RXRα and LXRα expression vectors. Medium was supplied with vehicle (0.1% DMSO), 1 μM T0901317, 10 μM 22-R-hydroxycholesterol (22-R-HC) or 10 μM 22-S— hydroxycholesterol (22-S-HC) for 48 h. The results represent one of two experiments performed with triplicate cell culture dishes and are presented as means±SD.
Transfection and Luciferase Assay. Monkey kidney COS-1 cells (ATCC no. CRL 1650) were grown in DMEM supplemented with 10% FBS. For reporter gene assays, COS-1 cells were transiently transfected with luciferase reporter containing sequences from −1594 to +67 bp of the rat FAS promoter (5 μg), with a known LXR responsive element (LXRE) located at −669 to −655 (kindly provided by Peter Tontonoz, Howard Hughes Medical Institute, California, USA) and co-transfected with pCMX-RXRα, pCMX-LXRα, (1 μg each), and pSV-β-galactosidase (3 μg) expression vectors with calcium phosphate precipitation. Total DNA concentration was adjusted to 12 μg with corresponding empty expression vectors and pGL3-basic vector. After 3 h of transfection, medium containing appropriate reagents was added for 48 h. Cells were harvested in 100 μl lysis buffer, and luciferase activities were measured in a TD-20/20 Luminometer (Turner Designs, Sunnyvale, Calif.) using the dual luciferase assay kit (Promega). Relative luciferase activity was normalized against β-galactosidase activity.

LXR target genes = assay: Gene expression of LXR target genes in myotubes by Real-Time RT-PCR; format: cell-based, human; settings: for expression of LXRα, increase / expression of SREBP1c, increase: mRNA normalized to 36B4; for mRNA expression of ACSL1, increase / mRNA expression of FAS, increase / mRNA expression of SCD-1, increase / mRNA expression of fatty acid transporter CD36, increase: 1 μM T0901317 or 10 μM 22-R-HC for 4 days; for mRNA expression of CD36, FAS, ACSL1 and SCD-1 compared to T0901317: 10 μM for 4 days vs 1 μM T0901317
Description: FIG. 5. Effects of 22-hydroxycholesterols on expression of LXR target genes in human myotubes. Human myoblasts were differentiated and treated with LXR ligands as described in FIG. 3. Total RNA were isolated from the cells, reversely transcribed and analyzed by Real-Time RT-PCR. Results are normalized to levels of 36B4 and present means±SEM (n=4-6; independent muscle cell donors). Relative expressions of (A) liver X receptor […], LXRβ, and sterol regulatory element-binding protein (SREBP)1c, (B) ATP-binding cassette transporter (ABC)A1 (C) acyl-CoA synthetase long chain family member 1 (ACSL1), fatty acid transporter (CD36), fatty acid synthase (FAS), and stearoyl-CoA desaturase (SCD)-1. *p<0.05 vs control, **p<0.05 vs all other treatments.
Human skeletal muscle cell cultures. A cell bank of satellite cells was established from muscle biopsy samples of the M. vastus lateralis of 6 healthy volunteers, age 25.7 years (±1.4), with BMI 21.6 (±1.0) and fasting glucose and insulin within normal range. The biopsies were obtained with informed consent and by approval of the National Committee for Research Ethics, Oslo, Norway. Muscle cell cultures free of fibroblasts were established by the method of Henry et al. (Diabetes, 44, 936-946, 1995), with minor modifications. Briefly, muscle tissue was dissected in Ham's F-10 media at 4° C., dissociated by three successive treatments with 0.05% trypsin/EDTA, and satellite cells were re-suspended in SkGM with 2% FCS and no added insulin. The cells were grown on culture wells coated with ECM gel (Apmis, 109, 726-734, 2001). At about 80% confluence, fusion of myoblasts into multinucleated myotubes was achieved by growth in DMEM with 2% FCS. All cells used were at passage 4 to 6. After 2 days in DMEM the cells were exposed to vehicle (0.1% DMSO), 1 μM T0901317, 10 μM 22-R-hydroxycholesterol (22-R-HC) or 10 μM 22-S-hydroxycholesterol (22-S-HC) for 4 days.
RNA isolation and analysis of gene expression by RT-PCR. Myotubes were washed, trypsinized and pelleted before total RNA was isolated by RNeasy Mini kit (Qiagen Sciences, Oslo, Norway) or Agilent Total RNA Mini kit (Matrix, Oslo, Norway) according to the suppliers total RNA isolation protocol. RNA samples were incubated with RNase-free DNase (Qiagen Sciences) for minimum 15 min in an additional step during the RNA isolation procedure. Total RNA (1 μg/μl) was reversely transcribed with hexamere primers using a Perkin-Elmer Thermal Cycler 9600 (25° C. for 10 min, 37° C. for 1 h, 99° C. for 5 min) and a TaqMan reverse-transcription reagents kit (Applied Biosystems). Real time PCR was performed using an ABI PRISM® 7000 Detection System. DNA expression was determined by SYBR® Green (Applied Biosystems), and primers [36B4 (Acc#M17885), ACSL1 (Acc#NM_001995), ABCA1 (Acc#AF165281), CD36 (Acc#L06850), FAS (Acc#U26644), GAPDH (Acc#J104038/M33197, GLUT4 (Acc#M20747), LXRα (Acc#U22662), LXR (Acc#U07132), Myogenin (Acc#X17651), MyoD (Acc#BC064493), PPARα (Acc#L02932), PPARδ (Acc#BC002715), PPARγ (Acc#L40904), SCD-1 (Acc#AB032261), SREBP1c (Acc#U00968)], GLUT1, (Acc#03195), GLUT3 (Acc#M20681), HKII (Acc#AF148513) were designed using Primer Express® (Applied Biosystems). Each target gene was quantified in triplicates and carried out in a 25 μl reaction volume according to the suppliers protocol. All assays were run for 40 cycles (95° C. for 12 s followed by 60° C. for 60 s). The transcription levels were normalized to the housekeeping control genes 36B4 and GAPDH.

[2] = 1 μM T0901317 or 10 μM 22-HC for 4 days
[3] = 10 μM chronic treatment (4 days)

SMILES | rat FAS promoter luciferase reporter activity [1] | expression level of ABCA1, increase (LXR target genes; [2]) | expression of LXRα, increase (LXR target genes; [2]) | expression of SREBP1c, increase (LXR target genes; [2]) | mRNA expression of ACSL1, increase (LXR target genes) | mRNA expression of FAS, increase (LXR target genes) | mRNA expression of SCD-1, increase (LXR target genes) | mRNA expression of fatty acid transporter CD36, increase (LXR target genes) | mRNA expression of CD36, FAS, ACSL1 and SCD-1 compared to T0901317 (LXR target genes) | expression level of LXRbeta (LXR target genes; [2]) | ACSL1 mRNA expression, down-regulation (LXR target genes; [3]) | CD36 mRNA expression, down-regulation (LXR target genes; [3]) | SCD-1 mRNA expression, down-regulation (LXR target genes; [3])
O=S(=O)(c1ccccc1)N(CC(F)(F)F)c1ccc(C(O)(C(F)(F)F)C(F)(F)F)cc1 [Example T0901317] | 6.5 fold | 14 fold | 4-5 fold | 4-5 fold | 5 fold | 4 fold | 10 fold | 2 fold |  |  |  |  | 
CC(C)CC[C@@H](O)[C@@H](C)[C@H]1CC[C@H]2[C@@H]3CC=C4C[C@@H](O)CC[C@]4(C)[C@H]3CC[C@]12C [Example 22-R-HC, 22-R-hydroxycholesterol] | unable to regulate the FAS gene promoter | 17 fold | 2-3 fold | 2-3 fold | unaffected | unaffected | unaffected | unaffected | significantly reduced |  |  |  | 
CC(C)CC[C@H](O)[C@@H](C)[C@H]1CC[C@H]2[C@@H]3CC=C4C[C@@H](O)CC[C@]4(C)[C@H]3CC[C@]12C [Example 22-S-HC, 22-S-hydroxycholesterol] | seemed to reduce reporter activity | very slightly (but insignificantly) | None of the genes described in FIG. 5A-B were significantly affected | None of the genes described in FIG. 5A-B were significantly affected |  |  |  |  | significantly reduced | None of the genes described in FIG. 5A-B were significantly affected | 50-80% | 50-80% | 50-80%
